Data taken from ChEMBL document CHEMBL6087458, “The Discovery of a Novel AXL/Triple Angiokinase Inhibitor Based on 6-Chloro-Substituted Indolinone and Side Chain Methyl Substitution Inhibiting Pancreatic Cancer Growth and Metastasis” (J Med Chem, 2025).
Calls of active or inactive are those of the source. The rule behind the calls is not given here.

Key:
[1] = system: BXPC-3; test: Induction of apoptosis in human BXPC-3 cells assessed as increase in BAX expression at 0.1 to 1 uM incubated for 24 hrs by Western blot analysis; assay type: functional, cell-based; conditions: dose 0.1-1 µM
[2] = Toxicity in mouse implanted with human BXPC-3 cells assessed as spleen damage at 50 mg/kg, po by H and E staining based analysis; assay type: organism-based; conditions: in vivo
[3] = system: MDA-MB-231; test: Down regulation of Ki67 expression in human MDA-MB-231 cells by immunofluorescence assay; assay type: functional, cell-based
[4] = Toxicity in mouse implanted with human BXPC-3 cells assessed as mortality at 25 to 50 mg/kg, po measured on day 11; assay type: organism-based; conditions: in vivo, 264 h, dose 25-50 mg/kg, time 11 day
[5] = system: BXPC-3; test: Inhibition of cell migration in human BXPC-3 cells assessed as decrease in cell migration incubated for 24 hrs by wound healing assay; assay type: functional, cell-based
[6] = system: MKN-45; test: cells; conditions: Homo sapiens, MKN-45, 72 h
Description: Antiproliferative activity against human MKN-45 cells assessed as cell viability incubated for 72 hrs by MTT assay

[7] = biological target: Fibroblast growth factor receptor (Homo sapiens) (UniProt P22607+P11362+P22455+P21802); test: Inhibition of FGFR (unknown origin) by envision reader analysis; assay type: protein assay
[8] = Toxicity in mouse implanted with human BXPC-3 cells assessed as body weight loss at 25 to 50 mg/kg, po measured on day 11; assay type: organism-based; conditions: in vivo, 264 h, dose 25-50 mg/kg, time 11 day
[9] = Half life in Sprague-Dawley rat at 5 mg/kg, iv; assay type: ADME, organism-based; conditions: in vivo
[10] = system: BXPC-3; test: Effect on STAT3 level in human BXPC-3 cells incubated for 24 to 72 hrs by Western blot analysis; assay type: functional, cell-based; conditions: time 24-72 hrs
[11] = system: Mitochondrial membrane; test: Induction of mitochondrial membrane potential in mouse NIH/3T3 cells assessed as increase in green fluorescence intensity incubated for 48 hrs by JC-1 staining based flow cytometry; assay type: cell membranes
[12] = system: MDA-MB-231; test: Effect on N-cadherin expression in TGF-beta induced human MDA-MB-231 cells at 0.1 to 0.5 uM incubated for 24 hrs by immunofluorescence assay; assay type: functional, cell-based; conditions: dose 0.1-0.5 µM
[13] = system: MDA-MB-231; test: Inhibition of colony formation in human MDA-MB-231 cells at 0.5 uM incubated for 72 hrs; assay type: functional, cell-based
[14] = system: Osimertinib-resistant NCI-H1975 cell; test: cells; conditions: Homo sapiens, 72 h
[15] = system: BXPC-3; test: cells; conditions: Homo sapiens, BXPC-3, 72 h
Description: Antiproliferative activity against human BXPC-3 cells assessed as cell viability incubated for 72 hrs by MTT assay

[16] = system: HUVEC; test: Anti-angiogenesis activity in HUVEC assessed as reduction in tube formation at 0.5 to 2 uM incubated for 24 hrs by Calcein AM staining based light microscopic analysis; assay type: functional, cell-based; conditions: Homo sapiens, dose 0.5-2 µM
[17] = system: PC-9; test: cells; conditions: Homo sapiens, PC-9, 72 h
Description: Antiproliferative activity against human PC-9 cells assessed as cell viability incubated for 72 hrs by MTT assay

[18] = Volume of distribution at steady state in Sprague-Dawley rat at 5 mg/kg, iv; assay type: ADME, organism-based; conditions: in vivo, read-out: Vdss
[19] = Toxicity in mouse implanted with human BXPC-3 cells assessed as liver damage at 50 mg/kg, po by H and E staining based analysis; assay type: organism-based; conditions: in vivo
[20] = system: BXPC-3; test: Down regulation of Ki67 expression in human BXPC-3 cells by immunofluorescence assay; assay type: functional, cell-based
[21] = Antiproliferative activity against mouse NIH/3T3 cells cultured as 3D tumor spheroids assessed as cell viability incubated for 72 hrs by CCK-8 assay; assay type: toxicity, cell-based, NIH3T3
[22] = system: SW480; test: cells; conditions: Homo sapiens, SW480, 72 h
Description: Antiproliferative activity against human SW480 cells assessed as cell viability incubated for 72 hrs by MTT assay

[23] = Cytotoxicity against human HK-2 cells assessed as inhibition of cell growth; assay type: toxicity, cell-based
[24] = species: Homo sapiens; test: Inhibition of SRC (unknown origin) by envision reader analysis
[25] = system: BXPC-3; test: Antitumor activity against human BXPC-3 cells xenografted in mouse assessed as reduction in tumor weight at 50 mg/kg, po administered for 14 days; assay type: functional; set-up: scale not given: the % may be the effect or the level left; conditions: time 14 day
[26] = system: BXPC-3; test: Antitumor activity against human BXPC-3 cells xenografted in mouse assessed as reduction in Ki67 expression in tumor at 25 to 50 mg/kg, po administered for 14 days; assay type: functional, organism-based; conditions: dose 25-50 mg/kg, time 14.0 day
[27] = system: MDA-MB-231; test: cells; conditions: Homo sapiens, MDA-MB-231, 72 h
Description: Antiproliferative activity against human MDA-MB-231 cells assessed as cell viability incubated for 72 hrs by MTT assay

[28] = system: BXPC-3; test: Antitumor activity against human BXPC-3 cells xenografted in mouse assessed as tumor growth inhibition at 50 mg/kg, po administered for 14 days; assay type: functional; conditions: BXPC-3, 336 h, time 14 day, read-out: TGI
[29] = Cmax in Sprague-Dawley rat at 50 mg/kg, po; assay type: ADME, organism-based; conditions: in vivo
[30] = system: HUVEC; test: Inhibition of VEGFR phosphorylation in HUVEC cells at 0.5 to 2 uM incubated for 24 hrs by Western blot assay; assay type: cell-based; conditions: Homo sapiens, dose 0.5-2 µM
[31] = Cytotoxicity against human MCF-10A cells assessed as inhibition of cell growth; assay type: toxicity, cell-based
[32] = system: NIH3T3; test: Anti-fibrotic activity in mouse NIH3T3 cells assessed as reduction in fibronectin expression incubated for 48 hrs by Western blot analysis; assay type: functional, cell-based
[33] = system: MDA-MB-231; conditions: Homo sapiens, MDA-MB-231, 168 h
[34] = system: MDA-MB-231; test: Induction of apoptosis in human MDA-MB-231 cells by annexin V-FITC/propidium iodide staining-based flow cytometry analysis; assay type: functional, cell-based
[35] = biological target: BDNF/NT-3 growth factors receptor (Homo sapiens) (UniProt Q16620); test: Inhibition of TRKB (unknown origin) by envision reader analysis
[36] = system: HUVEC; test: Effect on VEGFR expression in HUVEC cells at 0.5 to 2 uM incubated for 24 to 72 hrs by immunofluorescence assay; assay type: functional, cell-based; conditions: Homo sapiens, dose 0.5-2 µM, time 24-72 hrs
[37] = system: Mitochondrial membrane; test: Induction of mitochondrial membrane potential depolarization in human BXPC-3 cells at 0.2 to 0.5 uM incubated for 24 hrs by JC-1 staining based flow cytometry analysis; assay type: cell membranes; conditions: dose 0.2-0.5 µM

Chain of Fibroblast growth factor receptor (Homo sapiens) (P11362 whole entry, looked up): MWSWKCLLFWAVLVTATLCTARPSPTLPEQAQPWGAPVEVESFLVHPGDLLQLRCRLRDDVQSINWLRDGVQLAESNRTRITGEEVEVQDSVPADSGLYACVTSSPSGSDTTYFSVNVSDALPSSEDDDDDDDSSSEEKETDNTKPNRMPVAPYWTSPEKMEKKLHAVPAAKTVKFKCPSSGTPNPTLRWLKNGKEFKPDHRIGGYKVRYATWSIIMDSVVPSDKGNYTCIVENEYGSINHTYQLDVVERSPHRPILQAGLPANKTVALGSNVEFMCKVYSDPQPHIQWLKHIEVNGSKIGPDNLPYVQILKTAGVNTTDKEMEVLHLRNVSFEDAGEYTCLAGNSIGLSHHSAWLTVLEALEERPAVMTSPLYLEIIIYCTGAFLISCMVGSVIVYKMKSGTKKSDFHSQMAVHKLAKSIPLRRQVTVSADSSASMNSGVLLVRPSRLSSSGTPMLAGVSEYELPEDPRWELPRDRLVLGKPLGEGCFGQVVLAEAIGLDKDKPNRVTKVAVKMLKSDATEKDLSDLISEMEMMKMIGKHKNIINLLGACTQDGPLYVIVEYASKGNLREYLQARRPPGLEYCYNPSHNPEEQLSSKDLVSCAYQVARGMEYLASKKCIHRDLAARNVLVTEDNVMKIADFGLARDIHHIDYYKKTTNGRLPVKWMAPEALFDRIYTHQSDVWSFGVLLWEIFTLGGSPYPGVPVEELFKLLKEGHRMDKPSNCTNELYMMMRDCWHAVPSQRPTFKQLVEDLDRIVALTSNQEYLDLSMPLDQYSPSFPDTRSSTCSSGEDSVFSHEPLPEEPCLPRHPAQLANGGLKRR
Chain of Fibroblast growth factor receptor (Homo sapiens) (P21802 whole entry, looked up): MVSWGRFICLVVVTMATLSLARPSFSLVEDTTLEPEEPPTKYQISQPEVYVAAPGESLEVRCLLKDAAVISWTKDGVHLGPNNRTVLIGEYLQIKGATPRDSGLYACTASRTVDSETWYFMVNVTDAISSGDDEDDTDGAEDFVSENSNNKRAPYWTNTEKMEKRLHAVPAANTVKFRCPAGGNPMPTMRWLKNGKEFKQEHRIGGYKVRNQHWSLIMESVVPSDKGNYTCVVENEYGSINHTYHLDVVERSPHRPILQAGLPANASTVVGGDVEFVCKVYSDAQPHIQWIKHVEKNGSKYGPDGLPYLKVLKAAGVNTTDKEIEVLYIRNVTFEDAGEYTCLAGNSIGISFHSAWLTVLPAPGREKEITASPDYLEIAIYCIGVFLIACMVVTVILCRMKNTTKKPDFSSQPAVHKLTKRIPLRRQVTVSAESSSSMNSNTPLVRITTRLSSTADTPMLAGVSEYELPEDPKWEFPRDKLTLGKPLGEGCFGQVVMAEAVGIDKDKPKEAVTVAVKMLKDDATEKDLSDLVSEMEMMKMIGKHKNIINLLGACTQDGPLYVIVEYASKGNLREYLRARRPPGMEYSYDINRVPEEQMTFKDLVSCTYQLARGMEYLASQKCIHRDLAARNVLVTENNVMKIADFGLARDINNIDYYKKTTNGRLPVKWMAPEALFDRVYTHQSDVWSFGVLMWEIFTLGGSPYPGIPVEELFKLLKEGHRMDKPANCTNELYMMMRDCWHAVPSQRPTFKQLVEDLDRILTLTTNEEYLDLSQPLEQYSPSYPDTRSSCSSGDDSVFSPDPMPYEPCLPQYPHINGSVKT
Chain of Fibroblast growth factor receptor (Homo sapiens) (P22455 whole entry, looked up): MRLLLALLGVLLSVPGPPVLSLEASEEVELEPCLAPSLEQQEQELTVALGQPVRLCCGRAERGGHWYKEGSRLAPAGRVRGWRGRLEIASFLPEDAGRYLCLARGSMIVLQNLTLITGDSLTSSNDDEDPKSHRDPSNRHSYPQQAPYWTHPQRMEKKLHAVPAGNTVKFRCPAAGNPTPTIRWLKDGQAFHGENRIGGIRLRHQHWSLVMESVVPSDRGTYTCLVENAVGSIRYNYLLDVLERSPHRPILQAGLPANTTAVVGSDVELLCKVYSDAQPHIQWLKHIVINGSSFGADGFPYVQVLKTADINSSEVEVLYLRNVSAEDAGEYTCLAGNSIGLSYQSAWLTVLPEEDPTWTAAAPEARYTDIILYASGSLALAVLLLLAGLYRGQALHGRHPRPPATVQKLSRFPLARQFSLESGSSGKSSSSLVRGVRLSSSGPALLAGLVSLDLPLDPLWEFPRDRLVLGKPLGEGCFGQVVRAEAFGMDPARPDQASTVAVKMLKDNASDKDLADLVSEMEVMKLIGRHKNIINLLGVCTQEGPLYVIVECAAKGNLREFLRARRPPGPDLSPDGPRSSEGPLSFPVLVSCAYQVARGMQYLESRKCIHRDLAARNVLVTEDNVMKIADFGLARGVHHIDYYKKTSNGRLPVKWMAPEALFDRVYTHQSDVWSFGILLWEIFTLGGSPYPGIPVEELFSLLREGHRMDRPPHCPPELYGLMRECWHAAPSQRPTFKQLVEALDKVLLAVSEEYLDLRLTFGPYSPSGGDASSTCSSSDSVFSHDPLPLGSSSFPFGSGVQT
Chain of Fibroblast growth factor receptor (Homo sapiens) (P22607 whole entry, looked up): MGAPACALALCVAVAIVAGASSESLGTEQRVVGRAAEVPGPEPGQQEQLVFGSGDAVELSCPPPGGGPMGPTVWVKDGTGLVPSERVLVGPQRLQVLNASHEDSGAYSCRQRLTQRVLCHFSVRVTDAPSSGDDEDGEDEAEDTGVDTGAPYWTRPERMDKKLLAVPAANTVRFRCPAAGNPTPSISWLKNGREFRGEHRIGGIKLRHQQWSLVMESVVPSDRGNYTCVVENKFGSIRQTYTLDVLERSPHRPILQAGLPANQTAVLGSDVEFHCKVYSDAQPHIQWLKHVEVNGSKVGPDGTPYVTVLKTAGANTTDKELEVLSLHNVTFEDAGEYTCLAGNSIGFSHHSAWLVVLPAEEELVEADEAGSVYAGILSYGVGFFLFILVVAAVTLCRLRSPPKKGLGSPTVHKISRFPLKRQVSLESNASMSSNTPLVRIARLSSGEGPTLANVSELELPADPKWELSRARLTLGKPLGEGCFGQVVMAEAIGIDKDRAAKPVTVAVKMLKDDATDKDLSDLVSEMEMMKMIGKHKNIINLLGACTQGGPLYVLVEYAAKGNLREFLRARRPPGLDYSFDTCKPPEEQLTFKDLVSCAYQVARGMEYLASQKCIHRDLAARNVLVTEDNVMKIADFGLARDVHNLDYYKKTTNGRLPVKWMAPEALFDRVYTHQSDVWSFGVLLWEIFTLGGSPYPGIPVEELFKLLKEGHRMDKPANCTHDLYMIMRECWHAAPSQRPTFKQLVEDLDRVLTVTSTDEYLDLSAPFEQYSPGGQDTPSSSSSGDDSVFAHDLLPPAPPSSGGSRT
Chain of BDNF/NT-3 growth factors receptor (Homo sapiens) (Q16620 32-822 limits assumed): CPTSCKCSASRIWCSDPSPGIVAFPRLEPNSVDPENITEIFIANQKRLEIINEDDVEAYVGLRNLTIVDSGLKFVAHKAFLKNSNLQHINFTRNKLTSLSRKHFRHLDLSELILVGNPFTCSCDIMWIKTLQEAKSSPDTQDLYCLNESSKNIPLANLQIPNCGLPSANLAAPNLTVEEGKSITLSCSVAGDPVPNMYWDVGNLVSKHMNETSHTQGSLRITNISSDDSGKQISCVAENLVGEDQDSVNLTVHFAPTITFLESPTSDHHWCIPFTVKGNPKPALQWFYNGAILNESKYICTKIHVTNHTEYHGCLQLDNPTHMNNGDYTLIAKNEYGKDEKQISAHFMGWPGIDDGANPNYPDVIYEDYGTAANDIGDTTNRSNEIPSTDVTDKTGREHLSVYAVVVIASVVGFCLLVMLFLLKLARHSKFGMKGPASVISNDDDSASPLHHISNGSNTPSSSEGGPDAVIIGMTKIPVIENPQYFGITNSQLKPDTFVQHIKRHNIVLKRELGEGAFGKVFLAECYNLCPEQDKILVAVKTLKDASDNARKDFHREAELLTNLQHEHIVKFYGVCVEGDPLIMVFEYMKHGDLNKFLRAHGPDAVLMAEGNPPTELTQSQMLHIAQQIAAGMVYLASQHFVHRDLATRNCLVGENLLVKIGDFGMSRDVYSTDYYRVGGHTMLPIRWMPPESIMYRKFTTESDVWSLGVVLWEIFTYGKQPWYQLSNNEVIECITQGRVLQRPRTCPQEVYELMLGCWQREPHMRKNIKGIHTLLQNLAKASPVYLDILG

**Q.** Which Activity [1] does the source give for CCN1CCN(C(C)C(=O)N(C)c2ccc(N/C(=C3\C(=O)Nc4cc(Cl)ccc43)c3ccccc3)cc2)CC1 (racemic) here?
**A.** Its Activity is “Active”.

**Q.** What about the Activity [2] of the same molecule?
**A.** The Activity was “Non-toxic”.

**Q.** What about the Activity [3] of the same molecule?
**A.** The Activity was “Active”.

**Q.** And the Activity [4]?
**A.** Its Activity is “Non-toxic”.

**Q.** What about the inhibition [5] of the same molecule?
**A.** The inhibition was “Active”.

**Q.** And the IC50 [6]?
**A.** The IC50 was 1260 nM.

**Q.** What about the inhibition [7] of the same molecule?
**A.** Its inhibition is “Active”.

**Q.** And the Activity [8]?
**A.** The Activity was “Non-toxic”.

**Q.** What about the half-life [9] of the same molecule?
**A.** Its half-life is 4.36 h.

**Q.** And the Activity [10]?
**A.** The Activity was “Active”.

**Q.** What about the Activity [11] of the same molecule?
**A.** The Activity was “Active”.

**Q.** And the Activity [12]?
**A.** Its Activity is “Active”.

**Q.** And the inhibition [13]?
**A.** Its inhibition is “Active”.

**Q.** What about the IC50 [14] of the same molecule?
**A.** The IC50 was 1120 nM.

**Q.** What about the IC50 [15] of the same molecule?
**A.** Its IC50 is 1010 nM.

**Q.** And the Activity [16]?
**A.** The Activity was “Active”.

**Q.** And the IC50 [17]?
**A.** The IC50 was 5910 nM.

**Q.** And the Vd [18]?
**A.** The Vd was 12.8 L/kg.

**Q.** What about the Activity [19] of the same molecule?
**A.** The Activity was “Non-toxic”.

**Q.** And the Activity [20]?
**A.** The Activity was “Active”.

**Q.** And the IC50 at 72 h [21]?
**A.** The IC50 at 72 h was 2310 nM.

**Q.** What about the IC50 [22] of the same molecule?
**A.** Its IC50 is 5910 nM.

**Q.** And the IC50 [23]?
**A.** Its IC50 is 8350 nM.

**Q.** What about the inhibition [24] of the same molecule?
**A.** Its inhibition is “Active”.

**Q.** What about the Activity [25] of the same molecule?
**A.** Its Activity is 56.46%.

**Q.** And the AC30 [26]?
**A.** Its AC30 is “Active”.

**Q.** What about the IC50 [27] of the same molecule?
**A.** Its IC50 is 1160 nM.

**Q.** What about the inhibition in vivo at 50 mg/kg [28] of the same molecule?
**A.** Its inhibition in vivo at 50 mg/kg is 83%.

**Q.** And the Cmax [29]?
**A.** The Cmax was 88 ng/mL.

**Q.** What about the inhibition [30] of the same molecule?
**A.** Its inhibition is “Active”.

**Q.** What about the IC50 [31] of the same molecule?
**A.** The IC50 was greater than 10000 nM.

**Q.** And the Activity [32]?
**A.** The Activity was “Active”.

**Q.** And the IC50 [33]?
**A.** Its IC50 is 2220 nM.

**Q.** And the Activity [34]?
**A.** The Activity was “Active”.

**Q.** What about the inhibition [35] of the same molecule?
**A.** Its inhibition is “Active”.

**Q.** And the Activity [36]?
**A.** The Activity was “Active”.

**Q.** What about the Activity [37] of the same molecule?
**A.** Its Activity is “Active”.
